We go through two molecules from paper PMC7321218, “Synthetic (E)-3-Phenyl-5-(phenylamino)-2-styryl-1,3,4-thiadiazol-3-ium Chloride Derivatives as Promising Chemotherapy Agents on Cell Lines Infected with HTLV-1” (Molecules, 2020).

Broadly, the IC50 is the concentration that inhibits the measured activity by half. A lower IC50 goes with greater potency in that assay. Usually Kd stands for the constant that tells how readily two partners part at equilibrium.

Entries after “also recorded” stand apart in the source; their conditions may differ.

The subject of one test is C91/PL cells. Nature of the test: Necrosis by propidium iodide labeling (flow cytometry), C91/PL cells. The settings on record: 25 µM, 24 h, PI labeling. Type of test: cell-based. As to the method: (§1) The 1 × 10^5 cells/mL were incubated with or without compounds 5a, 5b, 5c, 5d or DMSO (Sigma-Aldrich/Merck, St. Louis, MO, USA) at 37 °C in humidified atmosphere with a 5% CO2. After 72 h, the cellular viability was assessed using 5 mg/mL of 3-(4,5-dimethylthiazol-2-yl)-2,5-diphenyltetrazolium bromide (MTT, Sigma-Aldrich/Merck). Cells were incubated for 3 h, centrifuged, and formazan crystal was dissolved with DMSO. Plates were read on a Paradigma® spectrofluorometer (Molecular Devices, San Jose, CA, USA) at a 490 nm wavelength. Cell death was also evaluated using Propidium Iodide (Biolegend) exclusion after a 24 h culture under the same conditions described above. The fluorescence was examined by FACSCalibus flow cytometry (BD) and 10,000 events were acquired for the experimental data. Analysis was accomplished using Summit V4.0 or FlowJo software (Becton, Dickingson and Company, Santa Barbara, CA, USA).
For orientation: A flow cytometer gives signals particle by particle.

Test [1] concerns Jurkat cells. In words: MTT cell viability assay, Jurkat cells. Type of test: cell-based. Particulars: Homo sapiens, 72 h incubation. As to the method: as §1
(§2) Statistical analysis was performed by one-way analysis of variance (ANOVA) and means were compared using a Tukey post-test. The IC50 values were obtained using nonlinear regression. Data were analyzed using GraphPad Prism-5 software (GraphPad software, San Diego, CA, USA), and p ≤ 0.05 was considered statistically significant.
(Tetrazolium assays rely on reduction of a dye to a coloured formazan, in cell work by metabolically active cells.)

The target in test [2] is T1, human serum albumin (HSA) (Homo sapiens, UniProt P02768).
T1 construct: three analogous domains (I, II, and III) having amino acid residues of 1–195, 196–383, and 384–585
In words: Circular dichroism of HSA (secondary structure). Type of test: binding. The settings on record: CD, 310 K, 1.32 × 10^−5 M compound. As for the experimental part:
The CD spectra were recorded in the 200–250 nm range at 310 K for free serum albumin (1.00 × 10^−6 M) and for HSA with the higher concentration of each mesoionic used in the steady-state fluorescence studies (1.32 × 10^−5 M). Each spectrum was taken on the average of three scans. The obtained data were further converted into mean residue ellipticity (MRE) according to Equation (6):(6) MRE=θ/(10.n.l.Cp) where θ is the observed ellipticity (mdeg); n is the number of amino acid residues (585 to HSA), l is the length of the optical cuvette (1.0 cm), and Cp is the molar concentration of HSA (1.00 × 10^−6 M). The 5a–d induced helical content perturbation at 208 and 222 nm were calculated using Equation (7):(7) (A) α−helix%(−MRE208−4000)/(33000−4000)×100(B) α−helix%(−MRE222−2340)/(30300)×100 where MRE208 and MRE222 are the significant molar residual ellipticities (deg.cm^2/dmol) at 208 nm and 222 nm, respectively.
On the technique in general: Circular dichroism is widely used to follow secondary structure.

Test [3] concerns C91/PL cells (HTLV-1-infected). In words: MTT cell viability assay, C91/PL cells. Type of test: cell-based. The settings on record: 72 h incubation. As for the experimental part: as §1, §2
Test [4] has as its target T1, human serum albumin (HSA). Nature of the test: Zeta potential of HSA (surface perturbation). Type of test: binding. As to the method: All zeta potential (ZP) measurements were performed with 10 runs at 298 K and results were reported in terms of ZP ± SD. The ZP was measured for the HSA solution (1.0 × 10^−5 M in PBS solution) without and in the presence of the mesoionic compounds at the maximum concentration used in the steady-state fluorescence experiments (1.32 × 10^−5 M) at room temperature (ca. 298 K).

Test [5] deals with MT2 cells (HTLV-1-infected cell line). In words: MTT cell viability assay, MT2 cells. Type of test: cell-based. Particulars: Homo sapiens, 72 h incubation. As for the experimental part: as §1, §2
Test [6] deals with T1, human serum albumin (HSA). In words: Time-resolved fluorescence decay of HSA. Type of test: binding. Particulars: HSA 1.00 × 10^−5 M with 1.32 × 10^−5 M compound, ca 298 K. As for the experimental part:
The time-resolved fluorescence decay of a 3.0 mL solution of HSA (1.00 × 10^−5 M, in phosphate buffer solution-PBS) was measured in the absence and presence of the maximum concentration of each mesoionic used in the steady-state fluorescence studies (1.32 × 10^−5 M) at room temperature (ca 298 K).

Test [7] concerns the target T1, human serum albumin (HSA). Nature of the test: Steady-state fluorescence quenching of HSA. Type of test: binding. Particulars: for Kd: Ka (modified Stern–Volmer binding constant). As for the experimental part:
The steady-state fluorescence spectra were measured in the 290–450 nm range, at 296, 303, and 310 K, with the excitation wavelength at λ = 295 nm. To a 3.0 mL solution containing an appropriate concentration of HSA (1.00 × 10^−5 M), successive aliquots from a stock solution of each mesoionic under study (1.00 × 10^−3 M in DMSO) were added, with final concentrations of 0.17, 0.33, 0.50, 0.66, 0.83, 0.99, 1.15, and 1.32 × 10^−5 M. The addition was done manually by using a micro syringe. The inner filter correction for the observed steady-state fluorescence of HSA:mesoionic compounds was done in order to compensate for the absorption value of 5a–d at the excitation and emission wavelengths (295 and 340 nm, respectively) when applying Equation (1):(1) Fcor=Fobs10^[Aexc+Aem/2] where Fcor and Fobs are the corrected and observed steady-state fluorescence intensity values, respectively, while Aex and Aem represent absorbance values for each ligand at the excitation and emission wavelengths (λ = 295 and 340 nm, respectively).
The binding properties of each ligand toward HSA—Stern–Volmer quenching constant (KSV), bimolecular quenching rate constant (kq), modified Stern–Volmer binding constant (Ka), enthalpy change (ΔH°), entropy change (ΔS°), and Gibbs’ free energy change (ΔG°)—were calculated from the steady-state fluorescence quenching data according to Equations (2)–(5):(2) F0/F=1+kqτ0[Q]=1+KSV[Q] (3) F0/F0−F=1/f[Q]Ka+1/f (4) lnKa=−ΔH^0/RT+ΔS^0/R (5) ΔG^0=ΔH^0−TΔS^0 where F0 and F are the steady-state fluorescence intensities of HSA in the absence and presence of mesoionics, respectively. [Q] and τ0 are the ligand concentration and fluorescence lifetime, respectively, of the fluorophore in the absence of quencher (5.54 × 10^−9 s—experimental data, see Section 2.3.1). T, ƒ, and R are the temperature (296, 303, and 310 K), fraction of the initial fluorescence intensity that corresponds to fluorophore that is accessible to the quencher (f ≈ 1.0), and gas constant (8.3145 J/mol.K), respectively.

In a further test the test system is salmon DNA. Nature of the test: DNA interaction assay (fluorescence emission). The settings on record: 25 µM compound, DNA 2, 10 and 100 ng/mL. Type of test: binding. As for the experimental part:
Fluorescence emission spectroscopic titration experiments of DNA were conducted in the absence and presence of a constant concentration of the mesoionic compounds 5a–d. […] After that, the fluorescence emission was recorded after 1 h of DNA incubation with or without compounds 5a–d (25 µM) or DMSO, over a wavelength range of 300 to 600 nm in a Tris-acetate-EDTA buffer (Promega) at room temperature. The slit widths for excitation and emission were set to 5.0 nm. The fluorescence was examined using a F4500 fluorometer (Hitachi, New Jersey, NJ, USA).

The test system of test [8] is Jurkat cells. In words: Necrosis by propidium iodide labeling (flow cytometry), Jurkat cells. Type of test: cell-based, human. The settings on record: 25 µM, 24 h, PI labeling. As for the experimental part:
as §1

Another test deals with MT2 cells. Nature of the test: Necrosis by propidium iodide labeling (flow cytometry), MT2 cells. Type of test: cell-based. Particulars: 25 µM, 24 h, PI labeling. As to the method:
as §1

Test [9] concerns adult T-cell leukemia/lymphoma (ATLL). More on the design: method as in PMID 25733162. Particulars: in combination with multi-agent chemotherapy, improved from 33%; cited from earlier work.

T1 sequence (P02768 25-609): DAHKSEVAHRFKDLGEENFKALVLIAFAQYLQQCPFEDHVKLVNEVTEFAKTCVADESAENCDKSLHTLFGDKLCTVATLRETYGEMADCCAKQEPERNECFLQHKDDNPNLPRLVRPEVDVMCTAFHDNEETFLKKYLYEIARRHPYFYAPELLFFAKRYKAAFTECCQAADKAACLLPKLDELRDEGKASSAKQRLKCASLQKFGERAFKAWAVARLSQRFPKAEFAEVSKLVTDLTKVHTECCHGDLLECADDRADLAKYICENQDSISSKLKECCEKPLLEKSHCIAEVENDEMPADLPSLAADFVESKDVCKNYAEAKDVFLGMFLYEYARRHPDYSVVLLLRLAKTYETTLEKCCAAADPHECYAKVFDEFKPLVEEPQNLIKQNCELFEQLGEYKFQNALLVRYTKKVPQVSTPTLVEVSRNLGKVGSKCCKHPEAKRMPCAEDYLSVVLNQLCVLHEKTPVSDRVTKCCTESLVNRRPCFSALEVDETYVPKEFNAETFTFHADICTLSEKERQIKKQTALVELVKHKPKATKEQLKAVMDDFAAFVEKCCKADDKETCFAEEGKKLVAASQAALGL

In the case of `COc1ccc(Nc2n[n+](-c3ccccc3)c(/C=C/c3ccccc3)s2)cc1.[Cl-]` [5b, (E)-3-Phenyl-5-(4′-methoxyphenylamino)-2-styryl-1,3,4-thiadiazol-3-ium chloride], in the test with C91/PL cells, the necrotic cells amounted to 33.75 ± 1.65%. In the test with Jurkat cells [1], this molecule yielded an IC50 of 1.74 µM. The “α-helix % of HSA at 222 nm” value in test [2] (HSA alone 80.1%) worked out at 77.3%. Moreover, the “α-helix % of HSA at 208 nm” value in [2] (HSA alone 86.7%) was found to be 82.4%. The molecule also came in with an IC50 in [3] of 4.5 µM. The “ζ (zeta potential of HSA)” value in [4] (HSA with 1.32 × 10^−5 M compound, HSA alone −9.15 ± 1.79) is −8.55 ± 1.46 mV. Besides, the Conductance in [4] (ZP measurement, HSA with compound) was 29,642 µs. Half-maximal inhibition in test [5] (IC50) was put at 5.09 µM. In addition, in test [6], the “Relative % of τ1” value is reported as 23.9%, the “Relative % of τ2” value amounted to 76.1%, the “τ1 (HSA fluorescence lifetime)” value is 1.66 ± 0.12 ns and the “τ2 (HSA fluorescence lifetime)” value was found to be 5.25 ± 0.11 ns. In test [7] (296 K), the “KSV (Stern–Volmer quenching constant)” value was 1.10 ± 0.02 × 10^5 M^−1, the “kq (bimolecular quenching rate constant)” value worked out at 1.99e+13 M⁻¹ s⁻¹, the “ΔG°” value is -6.69 kcal/mol and binding was characterised by a dissociation constant (Kd) of 11.7 µM. For the same molecule, in test [7] (303 K), the “KSV (Stern–Volmer quenching constant)” value is recorded as 1.14 ± 0.03 × 10^5 M^−1, the “kq (bimolecular quenching rate constant)” value worked out at 2.06e+13 M⁻¹ s⁻¹, the “ΔG°” value is -6.84 kcal/mol and binding was put at a Kd of 11.8 µM. Also, in [7] (310 K), the “KSV (Stern–Volmer quenching constant)” value was 1.15 ± 0.03 × 10^5 M^−1, the “kq (bimolecular quenching rate constant)” value came out at 2.07e+13 M⁻¹ s⁻¹, the “ΔG°” value was -6.98 kcal/mol and binding was characterised by a dissociation constant (Kd) of 12.1 µM. Further, the “ΔS°” value in [7] (van't Hoff, 296–310 K) is reported as 8.81 ± 0.06 × 10^−2 kJ.mol^−1K^−1. Moreover, the “interaction with DNA strands” value in the test on salmon DNA is listed as “can interact with the DNA strands; also recorded: could interact with DNA strands”. Further, the necrotic cells in the test with Jurkat cells [8] stood at 75.37 ± 3.63%. In addition, the necrotic cells with MT2 cells turned out to be 35.34 ± 7.80%.

B1: Mogamulizumab: anti-CCR4 monoclonal antibody (antibody, chains of the INN, looked up, V domains shown)
VH: EVQLVESGGDLVQPGRSLRLSCAASGFIFSNYGMSWVRQAPGKGLEWVATISSASTYSYYPDSVKGRFTISRDNAKNSLYLQMNSLRVEDTALYYCGRHSDGNFAFGYWGQGTLVTVSS
VL: DVLMTQSPLSLPVTPGEPASISCRSSRNIVHINGDTYLEWYLQKPGQSPQLLIYKVSNRFSGVPDRFSGSGSGTDFTLKISRVEAEDVGVYYCFQGSLLPWTFGQGTKVEIK
Take B1: the therapy response in test [9] is recorded as 52%.
